Source: patent US9567322B2, “Substituted tetrahydropyrans and method of use” (AbbVie S.á.r.l., priority 2014, dated 2017)

Legend:
F508delCFTR = biological target: T1, F508delCFTR (Homo sapiens, UniProt P13569, DEL508-508); test: Cell Surface Expression-Horse Radish Peroxidase (CSE-HRP) assay; format: cell-based; details: CFBE41o-F508delCFTR-HRP cells; maximum at any tested concentration, normalized to on-plate positive control (3 μM) and DMSO; 3 µM
T1 construct: expressed in transfected cells; host or cells: CFBE41o- (CFBE41o-F508delCFTR-HRP), doxycycline-inducible
T1 sequence (P13569 with tags, fused parts or gaps DEL508-508): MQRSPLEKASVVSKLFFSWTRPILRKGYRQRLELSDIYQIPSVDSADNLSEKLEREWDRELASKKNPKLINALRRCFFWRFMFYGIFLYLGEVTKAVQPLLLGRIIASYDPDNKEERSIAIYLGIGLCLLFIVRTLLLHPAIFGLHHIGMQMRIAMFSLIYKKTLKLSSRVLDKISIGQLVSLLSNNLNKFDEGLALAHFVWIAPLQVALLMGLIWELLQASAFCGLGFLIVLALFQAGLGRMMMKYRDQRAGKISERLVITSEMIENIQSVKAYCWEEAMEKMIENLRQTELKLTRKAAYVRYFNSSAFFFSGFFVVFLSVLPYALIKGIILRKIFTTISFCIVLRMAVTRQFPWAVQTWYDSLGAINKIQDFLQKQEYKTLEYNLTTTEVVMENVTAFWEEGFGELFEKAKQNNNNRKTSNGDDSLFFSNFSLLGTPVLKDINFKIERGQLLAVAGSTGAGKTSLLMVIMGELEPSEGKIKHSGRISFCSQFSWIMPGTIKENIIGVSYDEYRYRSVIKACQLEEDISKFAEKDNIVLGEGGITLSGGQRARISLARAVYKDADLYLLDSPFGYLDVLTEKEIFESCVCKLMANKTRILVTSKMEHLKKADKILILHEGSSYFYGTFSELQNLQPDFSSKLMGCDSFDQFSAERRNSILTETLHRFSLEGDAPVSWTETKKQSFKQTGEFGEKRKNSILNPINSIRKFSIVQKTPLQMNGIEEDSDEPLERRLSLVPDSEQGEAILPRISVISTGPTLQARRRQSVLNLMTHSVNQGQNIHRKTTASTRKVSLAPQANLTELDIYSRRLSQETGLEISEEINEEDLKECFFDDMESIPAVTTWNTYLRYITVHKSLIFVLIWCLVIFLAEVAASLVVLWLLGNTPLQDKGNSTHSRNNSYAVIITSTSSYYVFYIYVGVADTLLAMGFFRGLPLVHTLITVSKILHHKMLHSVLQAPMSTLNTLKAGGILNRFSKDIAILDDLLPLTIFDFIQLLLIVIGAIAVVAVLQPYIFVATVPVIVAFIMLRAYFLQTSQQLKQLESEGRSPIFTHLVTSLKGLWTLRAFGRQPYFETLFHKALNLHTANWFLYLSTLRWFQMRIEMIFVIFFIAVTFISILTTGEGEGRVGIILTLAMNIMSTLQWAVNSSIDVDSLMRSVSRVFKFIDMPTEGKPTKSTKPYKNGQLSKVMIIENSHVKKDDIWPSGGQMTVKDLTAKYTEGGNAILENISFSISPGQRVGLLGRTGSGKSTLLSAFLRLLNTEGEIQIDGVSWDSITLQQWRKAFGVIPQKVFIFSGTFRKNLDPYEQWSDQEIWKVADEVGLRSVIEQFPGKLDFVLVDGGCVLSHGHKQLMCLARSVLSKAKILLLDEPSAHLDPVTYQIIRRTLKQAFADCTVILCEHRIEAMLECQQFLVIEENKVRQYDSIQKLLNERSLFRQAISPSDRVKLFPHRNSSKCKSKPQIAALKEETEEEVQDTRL
How it was run: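 CFBE41o- cells expressing F508delCFTR with HRP in the fourth extracellular loop were doxycycline-induced (0.5 μg/mL) for 72 h at 37 °C, then treated 18-24 h at 33 °C with an 8-point 3-fold series from 20 μM. Surface HRP luminescence (luminol) was normalized to DMSO and positive control; EC50 came from variable-slope sigmoidal fits of triplicate plates.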

F508del/F508del CFTR = biological target: T2, F508del/F508del CFTR (Homo sapiens, UniProt P13569, DEL508-508); test: Transepithelial Clamp Circuit (TECC-24) conductance assay on primary human bronchial epithelial cells; format: cell-based; details: primary hBE cells from F508del/F508delCFTR patients; relative to positive control (3 μM) coupled with control potentiator = 100%
T2 construct: cells isolated from CF patients with the homozygous mutation; endogenous in cells; host or cells: primary human bronchial epithelial (hBE) cells from F508del/F508del CF patients
T2 sequence (P13569 with tags, fused parts or gaps DEL508-508): as above
Excerpt: Transepithelial Clamp Circuit on Human Bronchial Epithelial Cells Conductance Assay:
A cell based assay using the primary human bronchial epithelial cells (hBE) was used as a secondary assay to test novel F508delCFTR correctors for their activity on primary hBE cells with F508del/F508del CFTR mutation. The assay used a TECC-24 (Transepithelial Clamp Circuit for 24 wells) instrument that measures the functionality of the mutated channel by measuring the equivalent short circuit current (Ieq) generated by the polarized epithelial cells. The instrument works by measuring the transepithelial potential difference (Vt) and transepithelial resistance (Rt) in an open circuit format, and the Ieq is calculated by using Ohms law (Ieq=Vt/Rt). The assay was run in a 24-well format and all 24-wells were measured at the same time point giving a higher throughput for this assay.
Primary human bronchial epithelial (hBE) cells from F508del/F508delCFTR patients were expanded from 1×10^6 to 250×10^6 cells (Neuberger T, Burton B, Clark H and VanGoor F; Cystic Fibrosis, Methods in Mole Biol 741; eds. Amaral M D and Kunzelmann K, 2011). For this purpose, cells isolated from CF patients with the homozygous mutation were seeded onto 24 well Corning (Cat #3378) filter plates that were coated with 3T3 conditioned media and grown at an air-liquid interface for 35 days using an Ultroser® G supplemented differentiation media. Apical surface mucus was removed 72 hours before the experiment using 3 mM dithiothreitol (DTT) in phosphate buffered saline (PBS). The apical surface was washed again 24 hours before the experiment using PBS. The cells were incubated with the desired dose response of the corrector compounds 18-24 hours at 37° C., 5% CO2. The corrector compounds are only added on the basolateral side of the epithelial cells.
On the day of measuring the corrector activity on the TECC, the cells were switched into a bicarbonate and serum free F-12 Coon's medium and allowed to equilibrate for 90 minutes in a CO2 free incubator. At the time of measurement, the apical and basolateral sides of the filter were bathed with the F-12 Coon's modification media (with 20 mM 4-(2-hydroxyethyl)-1-piperazineethanesulfonic acid (HEPES), pH 7.4 (using 1 M tris(hydroxymethyl)aminomethane (Tris)), and the measurements were made at 36.5° C. Transepithelial voltage (Vt) and transepithelial resistance (Rt) were measured using a 24 channel transepithelial current clamp (TECC-24). Current responses to the sequential addition of benzamil (apical 6 M addition; for inhibiting epithelial ENaC channel), forskolin (apical and basolateral 10 M addition; for activating the CFTR channel), control potentiator (N-(3-carbamoyl-5,5,7,7-tetramethyl-4,7-dihydro-5H-thieno[2,3-c]pyran-2-yl)-1H-pyrazole-5-carboxamide; apical and basolateral 1 M addition; for potentiating the CFTR channel) and bumetanide (basolateral 20 μM addition; for inhibiting the Na:2Cl:K co-transporter, an indirect measure of inhibiting the Cl-secretion driven by CFTR channel) were measured.
All plates contained negative controls (dimethyl sulfoxide, DMSO) which coupled with the control potentiator (N-(3-carbamoyl-5,5,7,7-tetramethyl-4,7-dihydro-5H-thieno[2,3-c]pyran-2-yl)-1H-pyrazole-5-carboxamide) sets the null response and positive controls (3 μM of 3-[(2R,4R)-4-({[1-(2,2-difluoro-1,3-benzodioxol-5-yl)cyclopropyl]carbonyl}amino)-7-methoxy-3,4-dihydro-2H-chromen-2-yl]benzoic acid) coupled with the control potentiator sets the 100% response to measure the correction of the mutated CFTR channel. The maximum percent activity is reported relative to the positive control value.
The % activity measured at each of the 6 test concentrations of the test compound was normalized to the on-plate positive control using the following formula: % activity=[(test compound response−DMSO response)/(positive control response−DMSO response)]*100 […]

`Cc1cc(C(=O)O)ccc1[C@H]1C[C@H](NC(=O)C2(c3ccc4c(c3)OC(F)(F)O4)CC2)C[C@@H](c2ccccc2)O1` (racemic) [Example 65, rac-4-[(2R,4R,6S)-4-({[1-(2,2-difluoro-1,3-benzodioxol-5-yl)cyclopropyl]carbonyl}amino)-6-phenyltetrahydro-2H-pyran-2-yl]-3-methylbenzoic acid] was tested, and the Maximum % activity (F508delCFTR) was 100% and the “Maximum % activity” value (F508del/F508del CFTR) was 84%.
